Measurements from publication PMC10096391, “Discovery of N,4-Di(1H-pyrazol-4-yl)pyrimidin-2-amine-Derived CDK2 Inhibitors as Potential Anticancer Agents: Design, Synthesis, and Evaluation” (Molecules, 2023).

Columns and labels:
CDK2/cyclin E (CDK2E) = CDK2/cyclin E (CDK2E) (Homo sapiens, UniProt P24941); test: ADP-Glo kinase assay, CDK2/cyclin E; format: biochemical; settings: apparent Ki from IC50, ADP-Glo
Procedure: The luminescent ADP-Glo™ assay, which measures the amount of ADP formed in a kinase reaction as described previously, was used to determine the kinase inhibition profile of the compounds. […] Ki values were calculated from their corresponding IC50 values (the concentrations of inhibitors that inhibit the kinase activity by 50%) and the Michaelis–Menten constant (Km) of ATP for each kinase using the Cheng–Prusoff equation as previously stated. In brief, 1 μL of each concentration of the test compounds was added to the respective wells, and to it were added 1 μL of the kinases and their respective substrates, diluted to the desired concentration in kinase reaction buffer ([…] tris base pH 7.5, 20 mM MgCl2, 0.4 µM dithiothreitol, and 0.1 mg/mL bovine serum albumin), and the pH was adjusted by adding 1 μL of a two-fold diluted kinase reaction buffer. To initiate the kinase activity, 1 μL of ATP solution (the concentration varies depending on the type of kinase under investigation) was added to each well, and the mixture was incubated at room temperature (20 to 22 °C) for 30–60 min depending on the kinase being tested. The reaction was then halted, 5 μL of the ADP-Glo reagent was added to each well (removing any unreacted ATP), and it was incubated at room temperature for 40 min. Then, to each well, 10 μL of the kinase detection reagent containing luciferin was added, which was incubated once more at room temperature in the dark for 30 min and the luminescence was measured by an EnVision® multi-label plate reader with an integration time of 1.5 s per well. Positive controls (the wells without the inhibitor) and negative or blank controls (the wells without the inhibitor and the enzyme, but with 1 × kinase reaction buffer) were also determined in 2.5% DMSO.
The percentage of kinase inhibition was determined using the following equation: % Residual kinase activity=Luminescence in the presence of inhibitor−Luminescence of blank control/Luminescence in the absence of inhibitor−Luminescence of blank control×100%%kinase inhbition=100%−%Residual kinase activity
Km is defined as the concentration of ATP or the substrate required to produce 50% of the maximal reaction rate in the kinase reaction. Therefore, since we used the concentration of ATP and the substrate at their Km values, Ki simply equals IC50/2 assuming these inhibitors are ATP-competitive based on the Cheng–Prusoff equation: Ki = IC50/(1 + ([ATP]/Km(ATP))) where [ATP] is the ATP concentration used for the IC50 determination and Km(ATP) for each kinase was determined experimentally.

[1] = tested on: A2780 ovarian cancer cells; test: 72 h MTT antiproliferative assay, A2780; format: cell-based; settings: Homo sapiens, A2780; 72 h MTT
From the text: (§1) Cancer cell lines derived from leukemia (MV4-11 and U937), breast (MCF7 (Rb-positive) and MDA-MB-231(Rb-negative)), and ovarian (A2780, OVCAR5, OAW28, OV90, Cov318, and Cov504) cancers, and glioblastoma (U87, T98G and U251) were acquired from the cell bank at Drug Discovery and Development, University of South Australia, and cultured according to the American Type Culture Collection (ATCC) recommendation in Roswell Park Memorial Institute (RPMI)-1640, Dulbecco’s Modified Eagle’s Medium (DMEM), or Minimum Essential Media (MEM), with 10% fetal bovine serum (Sigma-Aldrich, Castle Hill, NSW, Australia) within a humidified incubator at 37 °C in the presence of 5% CO2.
(§2) The MTT (Life Technologies, Mulgrave, VIC, Australia) and resazurin (Sigma-Aldrich) assays were used to determine the antiproliferative activities of the compounds initially at 1 µM against the cancer cell lines stated above.

MV4-11 leukemia cells = test: Cell viability assay (MTT/resazurin), MV4-11; format: cell-based; settings: Homo sapiens, read-out: Antiproliferative Activity, GI50
From the text: as §1, §2

U937 leukemia cells = test: Cell viability assay (MTT/resazurin), U937; format: cell-based; settings: Homo sapiens, U-937, read-out: Antiproliferative Activity, GI50
From the text: as §1, §2

MCF7 breast cancer cells = test: Cell viability assay (MTT/resazurin), MCF7; format: cell-based; settings: Homo sapiens, read-out: Antiproliferative Activity, GI50
From the text: as §1, §2

[2] = tested on: MDA-MB-231 breast cancer cells; test: Cell viability assay (MTT/resazurin), MDA-MB-231; format: cell-based; settings: Homo sapiens, read-out: Antiproliferative Activity, GI50
From the text: as §1, §2

[3] = tested on: OV90 ovarian cancer cells; test: Cell viability assay (MTT/resazurin), OV90; format: cell-based; settings: Homo sapiens, OV-90, read-out: Antiproliferative Activity, GI50
From the text: as §1, §2

[4] = tested on: Cov504 ovarian cancer cells; test: Cell viability assay (MTT/resazurin), Cov504; format: cell-based; settings: read-out: Antiproliferative Activity, GI50
From the text: as §1, §2

T98G glioblastoma cells = test: Cell viability assay (MTT/resazurin), T98G; format: cell-based; settings: Homo sapiens, read-out: Antiproliferative Activity, GI50
From the text: as §1, §2

U251 glioblastoma cells = test: Cell viability assay (MTT/resazurin), U251; format: cell-based; settings: Homo sapiens, U-251, read-out: Antiproliferative Activity, GI50
From the text: as §1, §2

OVCAR5 cells = test: Annexin V/PI apoptosis assay, OVCAR5; format: cell-based; settings: 48 h
Procedure: Annexin V-fluorescein isothiocyanate (FITC) apoptosis detection kit I (consisting of a ten-time stock solution of binding buffer, FITC–annexin V, and PI staining solution) was used to determine the effect of the compounds on cancer cell survival as previously reported. Briefly, six-well plates (Sigma-Aldrich, NSW, Australia) were seeded with about 1–2 × 10^5 cells/well in 2 mL growth medium, incubated at 37 °C and 5% CO2 overnight, treated with various concentrations of the test compounds, and incubated for 48 h. The wells were collected by trypsinization, transferred into FACS tubes, washed twice with 1 × PBS, and centrifuged at 300× g for 5 min. The pellets were then suspended in 100 µL of 1 × binding buffer and incubated in the dark with 3 µL of PI and 3 µL of FITC-conjugated annexin V solutions for 15 min. Finally, 200 µL of binding buffer was added to each sample and analyzed by the CytoFLEX cytometer. The extent of apoptotic cell death was quantified as the sum of the percentages of early apoptotic cells (annexin V-positive and PI-negative) and late apoptotic cells (both annexin–V- and PI-positive) and presented graphically as a contour diagram relative to the untreated control.

A2780 cells = test: Colony formation (crystal violet), A2780; format: cell-based; settings: A2780, 10 days; 15 at 0.5 and 2 µM, CYC065 at 0.5 µM
Procedure: (§3) Briefly, ovarian cancer cells (i.e., A2780, OVCAR5, and OV90) seeded in six-well plates were adhered for 6 h and treated with 15. The medium that contained the compound was then changed every 72 h. Ten days after treatment, the cells were washed with PBS, fixed, and stained with crystal violet staining solution (0.05% crystal violet, 1% formaldehyde, 1% PBS, and 1% ethanol), and colonies were quantified using ImageJ software (National Institute of Health, Maryland, USA), with data presented as percentages of the control cells.

OV90 cells = test: Colony formation (crystal violet), OV90; format: cell-based; settings: OV90, 10 days
Procedure: as §3

Ki (CDK2/cyclin E (CDK2E)): 5 nM
GI50 [1]: 158 nM
GI50 (MV4-11 leukemia cells): 127 nM
GI50 (U937 leukemia cells): 186 nM
GI50 (MCF7 breast cancer cells): 342 nM
GI50 [2]: 458 nM
GI50 [3]: 390 nM
GI50 [4]: 540 nM
GI50 (T98G glioblastoma cells): 380 nM
GI50 (U251 glioblastoma cells): 350 nM
Structure (SMILES): Cn1cc(-c2nc(Nc3cn[nH]c3)ncc2Cl)cn1 [Compound 15, 5-Chloro-4-(1-methyl-1H-pyrazol-4-yl)-N-(1H-pyrazol-4-yl)pyrimidin-2-amine]
viability at 0.5 µM (OVCAR5 cells; Homo sapiens, OVCAR-5, OVCAR5, 0.5 µM, read-out: Q1-LL, viable cells): 67.4%
viability at 2 µM (OVCAR5 cells; Homo sapiens, OVCAR-5, OVCAR5, 2 µM, read-out: Q1-LL, viable cells): 57.8%
apoptosis (annexin V positive, early + late) (OVCAR5 cells; OVCAR5, 0.5 µM): 30%
apoptosis (annexin V positive, early + late) (OVCAR5 cells; OVCAR5, 2 µM): 38%
effect on colony formation (A2780 cells): inhibited
effect on colony formation (OV90 cells; 0.5 µM): partial inhibition
effect on colony formation (OV90 cells; 15 at 0.5 and 2 µM, CYC065 at 0.5 µM): inhibited
